Data published in patent publication US20070043084A1, “1,2-Diarylimidazoles useful as inhibitors of cox” (Astellas Pharma Inc., priority 2003, published 2007).

What was measured:
[1] = biological target: T1, COX-II (Homo sapiens, UniProt P35354); assay: Whole blood assay for COX-II (LPS-induced PGE2 production); assay type: cell-based; conditions: lipopolysaccharide 24 hrs at 37° C.
T1 construct: lipopolysaccharide for 24 hrs at 37° C. for induction of COX-II; from tissue; host or cells: fresh heparinized human whole blood from volunteers, stimulated with LPS for 24 hrs
T1 sequence (P35354 18-604): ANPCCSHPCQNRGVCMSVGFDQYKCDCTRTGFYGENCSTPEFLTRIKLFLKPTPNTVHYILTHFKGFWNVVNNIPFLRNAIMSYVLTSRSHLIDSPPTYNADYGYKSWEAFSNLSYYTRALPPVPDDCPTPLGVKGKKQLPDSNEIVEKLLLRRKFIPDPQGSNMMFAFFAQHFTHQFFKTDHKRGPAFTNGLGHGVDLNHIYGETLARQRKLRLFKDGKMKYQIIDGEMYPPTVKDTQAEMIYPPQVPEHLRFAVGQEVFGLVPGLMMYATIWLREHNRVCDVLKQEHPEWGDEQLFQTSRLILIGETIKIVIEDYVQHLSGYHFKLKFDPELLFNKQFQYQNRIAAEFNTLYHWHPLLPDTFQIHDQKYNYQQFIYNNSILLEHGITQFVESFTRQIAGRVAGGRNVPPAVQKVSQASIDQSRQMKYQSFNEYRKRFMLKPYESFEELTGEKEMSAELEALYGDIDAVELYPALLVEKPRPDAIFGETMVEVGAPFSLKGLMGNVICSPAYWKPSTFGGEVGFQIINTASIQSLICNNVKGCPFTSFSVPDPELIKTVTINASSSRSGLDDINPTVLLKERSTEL
Procedure: Whole Blood Assay for COX-II
Fresh blood was collected in heparinized tubes by syringe from volunteers with consent. The subjects had no apparent inflammatory conditions and had not taken any medication for at least 7 days prior to blood collection.
500 μl aliquots of human whole blood were incubated with either 2 μl dimethyl sulfoxide vehicle or 2 μl of a test compound at final concentrations for 15 min at 37° C. This was followed by incubation of the blood with […] of 5 mg/ml lipopolysaccharide for 24 hrs at 37° C. for induction of COX-II. Appropriate PBS treatments (no LPS) were used as blanks. At the end of the incubation, the blood was centrifuged at 6000×g for 5 min at 4° C. to obtain plasma. A 100 μl aliquot of plasma was mixed with 400 μl methanol for protein precipitation. The supernatant was obtained by centrifuging at 6000×g for 5 min at 4° C. and was assayed for prostaglandin E2 (PGE2) using a radioimmunoassay kit after conversion of PGE2 to its methyl oximate derivative according to the manufacturer's procedure.
For a test compound, the results were expressed as percent inhibition of […] production relative to control incubations containing dimethyl sulfoxide vehicle. The data were analyzed by that a test compound at the indicated concentrations was changed log value and was applied simple linear regression. IC50 value was calculated by least squares method.

[2] = system: adjuvant arthritis in rats; assay: Analgesic activity: effect on adjuvant arthritis in rats (Randall-Selitto pain threshold); assay type: in vivo, Lewis rats; conditions: dose 3.2 mg/kg; ratio of threshold pressure of treated vs non-treated arthritic rats, 2 hrs after administration; ratio of 1.5 = effective dose
[3] = biological target: T2, COX-I (Homo sapiens, UniProt P23219); assay: Whole blood assay for COX-I (TXB2 production); assay type: cell-based; conditions: 1 hr at 37° C.
T2 construct: Fresh blood was collected by syringe without anticoagulants from volunteers with consent; from tissue; host or cells: fresh human whole blood from volunteers, no anticoagulant, left to clot
Procedure: [B] Inhibiting Activity Against COX-I and COX-II (Whole Blood Assay): (i) Test Method: Whole Blood Assay for COX-I
Fresh blood was collected by syringe without anticoagulants from volunteers with consent. The subjects had no apparent inflammatory conditions and had not taken any medication for at least 7 days prior to blood collection.
500 μl aliquots of human whole blood were immediately incubated with 2 μl of either dimethyl sulfoxide vehicle or a test compound at final concentrations for 1 hr at 37° C. to allow the blood to clot. Appropriate treatments (no incubation) were used as blanks. At the end of the incubation, 5 μl of 250 mM Indomethacin was added to stop the reaction. The blood was centrifuged at 6000×g for 5 min at 4° C. to obtain serum. A 100 μl aliquot of serum was mixed with 400 μl methanol for protein precipitation. The supernatant was obtained by centrifuging at 6000×g for 5 min at 4° C. and was assayed for TXB2 using an enzyme immunoassay kit according to the manufacturer's procedure. For a test compound, the results were expressed as percent inhibition of thromboxane B2(TXB2) production relative to control incubations containing dimethyl sulfoxide vehicle.
The data were analyzed by that a test compound at the indicated concentrations was changed log value and was applied simple linear regression. IC50 value was calculated by least squares method.

T2 sequence (P23219 24-599): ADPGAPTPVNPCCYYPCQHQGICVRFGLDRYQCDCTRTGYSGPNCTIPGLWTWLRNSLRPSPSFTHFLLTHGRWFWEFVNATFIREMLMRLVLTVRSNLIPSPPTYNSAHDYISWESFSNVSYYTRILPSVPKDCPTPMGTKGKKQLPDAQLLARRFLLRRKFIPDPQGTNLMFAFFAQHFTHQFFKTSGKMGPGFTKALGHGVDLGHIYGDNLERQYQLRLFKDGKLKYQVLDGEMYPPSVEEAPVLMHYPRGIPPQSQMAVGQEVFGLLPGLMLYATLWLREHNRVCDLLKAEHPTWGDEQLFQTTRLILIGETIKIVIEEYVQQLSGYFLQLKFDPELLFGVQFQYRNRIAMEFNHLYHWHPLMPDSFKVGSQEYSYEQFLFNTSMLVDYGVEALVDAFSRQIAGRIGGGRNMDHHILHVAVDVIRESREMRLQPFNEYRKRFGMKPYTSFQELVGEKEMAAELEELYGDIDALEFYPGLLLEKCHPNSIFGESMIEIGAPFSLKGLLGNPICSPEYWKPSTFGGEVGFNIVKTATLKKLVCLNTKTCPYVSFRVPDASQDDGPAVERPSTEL

In the case of `COc1ccc(-c2nc(C(F)F)cn2-c2ccc(C#N)cc2)cn1` [Example 40, 1-(4-Cyanophenyl)-4-difluoromethyl-2-(2-methoxy-5-pyridinyl)-1H-imidazole], the melting point is reported as 160 to 161 °C, the IC50 [1] is reported as no less than 100 nM and the “The coefficient of analgesic” value [2] is reported as greater than 1.5. For the same molecule, the IC50 [3] was less than 10 nM.
For `COc1ccc(-n2cc(C(F)F)nc2-c2ccc(OC)nc2)cc1` [Example 43, 4-Difluoromethyl-1-(4-methoxyphenyl)-2-(2-methoxy-5-pyridinyl)-1H-imidazole], the melting point was 106 to 107 °C, the IC50 [1] was no less than 100 nM and the “The coefficient of analgesic” value [2] was greater than 1.5. For the same molecule, the IC50 [3] was less than 10 nM.
In the case of `COc1ccc(-n2cc(C(F)(F)F)nc2-c2ccc(OC)nc2)cc1` [Example 3-2, 1-(4-Methoxyphenyl)-2-(2-methoxy-5-pyridinyl)-4-trifluoromethyl-1H-imidazole], the melting point is reported as 90 to 92 °C, the IC50 [1] is reported as no less than 100 nM and the “The coefficient of analgesic” value [2] is reported as greater than 1.5. For the same molecule, the IC50 [3] was less than 10 nM.
